Publication PMC5788402, “Impact of Target Warhead and Linkage Vector on Inducing Protein Degradation: Comparison of Bromodomain and Extra-Terminal (BET) Degraders Derived from Triazolodiazepine (JQ1) and Tetrahydroquinoline (I-BET726) BET Inhibitor Scaffolds” (Journal of Medicinal Chemistry, 2017)

Experiments:
[1] = system: BET proteins Brd2, Brd3, Brd4; test: BET degradation profile in HeLa cells; type: cell-based; conditions: 24 h
[2] = target: VHL-EloC-EloB protein (VCB) (Homo sapiens, UniProt P40337); test: ITC binary titration, VCB into PROTAC; type: binding; conditions: VCB in syringe, PROTAC in cell
[3] = target: VCB / Brd4^BD2 ternary complex (Homo sapiens, UniProt O60885+P40337); test: ITC ternary titration, VCB into Brd4^BD2–PROTAC complex; type: binding; conditions: for α: cooperativity, ratio between binary and ternary Kd; for α / ΔpKd ± uncertainty: Brd4^BD2; for cooperativity (α) Brd4–BD2: ternary complex formation with VCB and Brd4^BD2, as tabulated in Table 2; for ΔpKd ± uncertainty: ternary vs binary; for stoichiometry N / ΔG / ΔH / –TΔS: ternary, VCB in syringe, Brd4^BD2–PROTAC in cell
Brd4^BD2 = Brd4^BD2 (Homo sapiens, UniProt O60885); test: ITC binary titration, Brd4^BD2 into PROTAC; type: binding; conditions: Brd4^BD2 in syringe, PROTAC in cell

stoichiometry N [2] | ΔG [2] | ΔH [2] | –TΔS [2] | α [3] | cooperativity (α) Brd4–BD2 [3] | ΔpKd ± uncertainty [3] | stoichiometry N [3] | ΔG [3] | ΔH [3] | –TΔS [3] | stoichiometry N (Brd4^BD2) | ΔG (Brd4^BD2) | ΔH (Brd4^BD2) | –TΔS (Brd4^BD2) | Compound | concentration with increased levels of BET proteins (hook effect) [1] [µM]
0.96 ± 0.01 | –9.52 ± 0.13 kcal·mol^–1 | –6.18 ± 0.12 kcal·mol^–1 | –3.34 ± 0.18 kcal·mol^–1 | 0.5 | 0.46 | –0.34 ± 0.12 | 1.44 ± 0.02 | –9.06 ± 0.09 kcal·mol^–1 | –6.90 ± 0.11 kcal·mol^–1 | –2.16 ± 0.14 kcal·mol^–1 | 1.15 ± 0.01 | –11.5 ± 0.3 kcal·mol^–1 | –9.74 ± 0.10 kcal·mol^–1 | –1.73 ± 0.30 kcal·mol^–1 | CC(=O)N1c2ccc(-c3ccc(C(=O)NCCOCCOCCOCC(=O)N[C@H](C(=O)N4C[C@H](O)C[C@H]4C(=O)NCc4ccc(-c5scnc5C)cc4)C(C)(C)C)cc3)cc2[C@H](Nc2ccc(Cl)cc2)C[C@@H]1C [compound 9, (2S,4R)-1-((S)-1-(4-((2S,4R)-1-Acetyl-4-((4-chlorophenyl)amino)-2-methyl-1,2,3,4-tetrahydroquinolin-6-yl)phenyl)-15-(tert-butyl)-1,13-dioxo-5,8,11-trioxa-2,14-diazahexadecan-16-oyl)-4-hydroxy-N-(4-(4-methylthiazol-5-yl)benzyl)pyrrolidine-2-carboxamide] | 1 to 10
0.8 ± 0.05 | –9.34 ± 0.10 kcal·mol^–1 | –5.72 ± 0.47 kcal·mol^–1 | –3.61 ± 0.37 kcal·mol^–1 | 5.7 | 5.7 | 0.78 ± 0.16 | 0.76 ± 0.06 | –10.4 ± 0.2 kcal·mol^–1 | –5.36 ± 0.77 kcal·mol^–1 | –5.05 ± 0.62 kcal·mol^–1 | 0.81 ± 0.04 | –10.6 ± 0.06 kcal·mol^–1 | –11.2 ± 0.04 kcal·mol^–1 |  | Cc1ncsc1-c1ccc(CNC(=O)[C@@H]2C[C@@H](O)CN2C(=O)[C@@H](NC(=O)COCCOCCNC(=O)C[C@@H]2N=C(c3ccc(Cl)cc3)c3c(sc(C)c3C)-n3c(C)nnc32)C(C)(C)C)cc1 [compound 5, (2S,4R)-1-((S)-2-(tert-Butyl)-14-((S)-4-(4-chlorophenyl)-2,3,9-trimethyl-6H-thieno[3,2-f][1,2,4]triazolo[4,3-a][1,4]diazepin-6-yl)-4,13-dioxo-6,9-dioxa-3,12-diazatetradecanoyl)-4-hydroxy-N-(4-(4-methylthiazol-5-yl)benzyl)pyrrolidine-2-carboxamide] | 
